Here are results for one compound from patent EP0408806A1, “Antihypercholesterolemic agents” (MERCK & CO. INC., priority 1989, dated 1991).

In the experiment the target is T1, HMG-CoA reductase (Rattus norvegicus, UniProt P51639).
T1 sequence (P51639 1-887): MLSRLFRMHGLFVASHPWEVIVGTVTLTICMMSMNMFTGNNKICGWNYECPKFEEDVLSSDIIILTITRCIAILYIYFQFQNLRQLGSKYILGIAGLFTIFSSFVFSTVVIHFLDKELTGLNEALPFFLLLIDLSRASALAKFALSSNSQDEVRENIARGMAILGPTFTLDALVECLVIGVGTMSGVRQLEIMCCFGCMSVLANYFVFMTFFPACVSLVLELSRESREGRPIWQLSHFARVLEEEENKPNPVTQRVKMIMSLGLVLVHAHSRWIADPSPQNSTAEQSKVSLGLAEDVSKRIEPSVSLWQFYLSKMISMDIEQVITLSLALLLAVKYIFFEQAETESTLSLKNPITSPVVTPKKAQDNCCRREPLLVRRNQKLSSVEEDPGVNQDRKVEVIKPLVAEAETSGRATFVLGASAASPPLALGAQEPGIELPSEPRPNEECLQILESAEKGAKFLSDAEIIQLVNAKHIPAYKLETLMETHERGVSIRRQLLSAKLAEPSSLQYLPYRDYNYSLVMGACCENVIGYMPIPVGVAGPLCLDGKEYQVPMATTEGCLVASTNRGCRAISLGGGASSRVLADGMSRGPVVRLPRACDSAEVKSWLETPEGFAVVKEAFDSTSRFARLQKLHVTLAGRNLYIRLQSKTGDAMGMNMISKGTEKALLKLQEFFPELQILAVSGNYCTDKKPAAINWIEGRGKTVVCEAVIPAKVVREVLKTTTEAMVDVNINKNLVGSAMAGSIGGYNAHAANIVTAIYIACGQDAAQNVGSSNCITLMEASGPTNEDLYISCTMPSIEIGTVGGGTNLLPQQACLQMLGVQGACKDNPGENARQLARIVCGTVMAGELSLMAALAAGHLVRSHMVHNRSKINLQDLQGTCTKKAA
Description: intrinsic HMG-CoA reductase inhibition, in vitro protocol published in J. Med. Chem., 28, p. 347-358 (1985). The format is biochemical. The note with it: read-out: IC₅₀ value (converted). The method, then: The intrinsic HMG-CoA reductase inhibition activity of the claimed compounds is measured in the in vitro protocol published in J. Med. Chem., 28, p. 347-358 (1985).

In the case of `CCC(C)(C)C(=O)OC1CC(C)=CC2=CC(=O)C(C)C(CCC3CC(O)CC(=O)O3)C21` [6(R)-[2-[8(S)-(2,2-dimethylbutyryloxy)-2(S),6-dimethyl-3-oxo-1,2,7,8,8a(R)-pentahydronaphthyl-1(S)]ethyl]-4(R)-hydroxy-3,4,5,6-tetrahydro-2H-pyran-2-one], the IC50 is 4.62 nM.
